Here are results for 65 compounds from patent US12195490B2, “STRAD-binding agents and uses thereof” (The Regents of the University of California, priority 2020, dated 2025).

Where a name gives a salt, the structure may show the parent alone.

The subject of this assay is ACHN cell line. The assay can be described thus: drug screen of the SelleckChem kinase inhibitor library with and without 5 uM SU-329, Cell-Titer Glo after 5 days. The following applies: kinase inhibitor at 200 nM with and without 5 uM SU329; ACHN cell line; 5 days; Cell-Titer Glo. It is filed as cell-based.

Consider `NC(=O)Nc1sc(-c2ccc(F)cc2)cc1C(N)=O` [TPCA-1], for which the log2fc was −0.08928.
Compound `COc1cc(Nc2c(C#N)cnc3cc(OCCCN4CCN(C)CC4)c(OC)cc23)c(Cl)cc1Cl` [Bosutinib (SKI-606)] came in with a log2fc of −0.1583.
In the case of `C[C@@H]1COC(Nc2ccc3ncnc(Nc4ccc(OCc5nccs5)c(Cl)c4)c3c2)=N1` [Varlitinib], the log2fc turned out to be 0.7999.
`CCN1CCN(Cc2ccc(C(=O)Nc3ccc(C)c(Oc4ccc5c(c4)CC(=O)N5)c3)cc2C(F)(F)F)CC1` [DDR1-IN-1] showed a log2fc of −0.4228.
With `CC(C)n1nc(-c2ccc3oc(N)nc3c2)c2c(N)ncnc21` [INK 128 (MLN0128)] the figure was −0.2018.
Compound `Cc1cnc(NC(=O)Nc2cc(Br)c(C)cc2OC[C@@H]2CNCCO2)cn1` [LY2603618] returned a log2fc of −0.1739.
The value for `CCOC(=O)c1cnc2ccc(-c3cncc(NS(=O)(=O)c4ccccc4)c3)cn12` [HS-173] was 0.4717; that for `Nc1ncnc2c1c(-c1cccc(OCc3ccccc3)c1)cn2C1CC(CN2CCC2)C1` (centres unmarked) [NVP-AEW541] was 0.2179.
The value for `COc1ccc(-c2ccc3c(N4CCOC[C@@H]4C)nc(N4CCOC[C@@H]4C)nc3n2)cc1CO` [AZD8055] was 0.1024; that for `Cl.Cl.Clc1ccc(Nc2nnc(Cc3ccncc3)c3ccccc23)cc1` [Vatalanib (PTK787) 2HCl] was −0.4289.
The value for `O=C(NOCC(O)CO)c1cc(Br)c(F)c(F)c1Nc1ccc(I)cc1F` (centres unmarked) [PD318088] was 0.4184.
In turn, `CC(=O)Nc1cccc(-n2c(=O)n(C3CC3)c(=O)c3c(Nc4ccc(I)cc4F)n(C)c(=O)c(C)c32)c1` [Trametinib (GSK1120212)] displayed a log2fc of 0.4803.
The value for `CNc1nc(Nc2cnn([C@H]3CCN(C4COC4)C[C@@H]3F)c2Cl)ncc1C(F)(F)F` [GNE-9605] was 0.4092; that for `CNc1nc(Nc2cn(C(C)(C)C#N)nc2C)ncc1C(F)(F)F` [GNE-0877] was 0.3098.
In turn, `CC(C)(C)c1cc(C=C(C#N)C#N)cc(C(C)(C)C)c1O` [Tyrphostin 9] registered a log2fc of −0.5358.
`C[C@]1(O)C[C@@H](c2nc(-c3ccc4ccc(-c5ccccc5)nc4c3)c3c(N)nccn32)C1` [Linsitinib (OSI-906)] returned a log2fc of 0.08978.
Take `COc1cc2nccc(Oc3ccc(NC(=O)C4(C(=O)Nc5ccc(F)cc5)CC4)cc3)c2cc1OC.O=C(O)C[C@H](O)C(=O)O` [Cabozantinib malate (XL184)]: the log2fc is recorded as 0.5713.
With `Cc1cnc(Nc2ccc(OCCN3CCCC3)cc2)nc1Nc1cccc(S(=O)(=O)NC(C)(C)C)c1` [Fedratinib (SAR302503, TG101348)], the log2fc is −0.003444.
With `CCc1cccc(CC)c1NC(=O)N1Cc2[nH]nc(NC(=O)c3ccc(N4CCN(C)CC4)cc3)c2C1` [PHA-680632] the figure was −0.4048; with `C=CC(=O)Nc1cccc(Nc2nc(Nc3ccc(N4CCN(C(C)=O)CC4)cc3OC)ncc2C(F)(F)F)c1` [Rociletinib (CO-1686, AVL-301)], −0.001899.
With `Cc1cc(CS(=O)(=O)c2ccccc2)cc(OCc2ccc(CN3CCC[C@@H]3CO)cc2)c1` [PF-543] the figure was 0.8598.
As for `C[C@@H](NC(=O)c1ncnc(N)c1Cl)c1ncc(C(=O)Nc2cc(C(F)(F)F)c(Cl)cn2)s1` [MLN2480], the log2fc is 0.5916.
With `COCCNCc1ccc(-c2cc3nccc(Oc4ccc(NC(=S)NC(=O)Cc5ccc(F)cc5)cc4F)c3s2)nc1` [MGCD-265] the figure was 0.4311; with `CCOc1ccn(-c2ccc(F)cc2)c(=O)c1C(=O)Nc1ccc(Oc2ccnc(N)c2Cl)c(F)c1` [BMS-777607], −0.5095.
With `COc1cc2ncnc(Nc3cccc(Cl)c3)c2cc1OC` [AG-1478 (Tyrphostin AG-1478), AG-1478, reference compound], the log2fc was determined as 0.2903.
`CS(=O)(=O)CCNCc1ccc(-c2ccc3ncnc(Nc4ccc(OCc5cccc(F)c5)c(Cl)c4)c3c2)o1` [Lapatinib (GW-572016) Ditosylate, lapatinib, reference compound] displayed a log2fc of 0.212.
As for `Cc1nc(Nc2ncc(C(=O)Nc3c(C)cccc3Cl)s2)cc(N2CCN(CCO)CC2)n1` [Dasatinib, dasatinib, reference compound], the log2fc is recorded as −0.196.
The value for `COc1cc(OC)c(/C=C/S(=O)(=O)Cc2ccc(OC)c(NCC(=O)O)c2)c(OC)c1` [Rigosertib (ON-01910)] was 0.6643; that for `C#Cc1cccc(Nc2ncnc3cc(OC)c(OCCCCCCC(=O)NO)cc23)c1` [CUDC-101, reference compound] was 0.1269; that for `CNC(=O)c1c(F)cccc1Nc1nc(Nc2cc3c(cc2OC)CCN3C(=O)CN(C)C)nc2[nH]ccc12` [GSK1838705A] was −0.03081.
In the case of `COc1ccc2cc(-c3nc(-c4ccc([S+](C)[O-])cc4)[nH]c3-c3ccncc3)ccc2c1` (centres unmarked) [Tie2 kinase inhibitor], the log2fc was −0.08697.
Consider `O=C(NOCC1CC1)c1ccc(F)c(F)c1Nc1ccc(I)cc1Cl` [PD184352 (CI-1040), PD184352, reference compound], for which the log2fc is reported as 0.3257.
With `Cc1cc(O)c2c(c1)C(=O)c1cccc(O)c1C2=O` [Chrysophanic Acid] the figure was −0.1902.
Consider `COc1cc2c(c(OC)c1OC)-c1c(cc3c(c1OC)OCO3)CC(C)C(C)C2` (centres unmarked) [Schisandrin B (Sch B)], for which the log2fc was determined as 0.5674.
The value for 10058-F4 was 0.2472; that for `O=C(Nc1cc(C(F)(F)F)cc(C(F)(F)F)c1)c1cc(Cl)ccc1O` [IMD 0354] was 0.2086; that for `Cc1ncc(-c2ccnc(Nc3ccc(S(C)(=O)=O)cc3)n2)n1C(C)C` [AZD5438] was 1.871.
The value for `O=C1Nc2cc(Br)ccc2/C1=C1/Nc2ccccc2/C1=N\O` [BIO] was −0.1795; that for `Cc1ccc(NC(=O)c2ccc(CN3CCN(C)CC3)cc2)cc1Nc1nc(-c2cccnc2)cs1` [Masitinib (AB1010)] was 0.1874; that for `Cc1[nH]c(/C=C2\C(=O)Nc3ccc(S(=O)(=O)N(C)c4cccc(Cl)c4)cc32)c(C)c1C(=O)N1CCN(C)CC1` [SU11274] was 0.1013.
Turning to `CNc1nc(-c2ccc3c(N)n[nH]c3c2)cc(N2C[C@@H](C(=O)NC3CCCCC3)CC[C@H]2C)n1` [GSK2334470], the log2fc is on record as −1.111.
With `O=C(NC[C@H](O)CO)c1ccncc1Nc1ccc(I)cc1F` [Pimasertib (AS-703026), AS703026, reference compound] the figure was 0.3252; with `CNC(=O)Nc1ccc(-c2nc(N3CC4CCC(C3)O4)c3cnn(C4CCC5(CC4)OCCO5)c3n2)cc1` [WYE-125132 (WYE-132)], 0.04946.
As for `CC(C)(C)c1ccc(S(=O)(=O)/C=C/C#N)cc1` [Bay 11-7085], the log2fc stood at 0.004153.
In turn, `CNC(=O)c1cc(COc2nnc(Nc3ccc(Cl)cc3)c3ccoc23)ccn1` [Telatinib] displayed a log2fc of 0.2479.
`CN1CC[C@H](c2c(O)cc(O)c3c(=O)cc(-c4ccccc4Cl)oc23)[C@H](O)C1` [Flavopiridol HCl] registered a log2fc of 1.693.
Consider `C=CC(=O)Nc1cccc(Oc2nc(Nc3ccc(N4CCN(C)CC4)cc3OC)ncc2Cl)c1` [WZ4003], for which the log2fc is −0.1405.
`Cc1cc(Nc2nc(N[C@@H](C)c3ccc(F)cc3)c(C#N)cc2F)n[nH]1` [AZ 960] gave a log2fc of 0.979.
The value for `CC1(COc2ccc3c(c2)ncn3-c2ccc3cccc(N4CCC(N)CC4)c3n2)COC1` [Crenolanib (CP-868596)] was 0.3666; that for `O=C(NCCCNc1nc(Nc2cccc(NC(=O)N3CCCC3)c2)ncc1I)c1cccs1` [BX-795] was −0.3476; that for `Nc1nc(N)c(N=O)c(OCC2CCCCC2)n1` [NU6027] was −0.2463.
Compound `CNC(=O)c1ccc(C)c(-n2c(C)cc(OCc3ccc(F)cc3F)c(Br)c2=O)c1` [PH-797804] displayed a log2fc of −0.5678.
With `C=CC(=O)Nc1cccc(Nc2nc(Nc3ccc(NC4CN(CCF)C4)cc3OC)ncc2C(F)(F)F)c1` [CNX-2006] the figure was 0.1218.
The value for `CO[C@H]1C[C@@H]2CC[C@@H](C)[C@@](O)(O2)C(=O)C(=O)N2CCCC[C@H]2C(=O)O[C@H]([C@H](C)C[C@@H]2CC[C@H](n3cnnn3)[C@H](OC)C2)CC(=O)[C@H](C)/C=C(\C)[C@@H](O)[C@@H](OC)C(=O)[C@H](C)C[C@H](C)/C=C/C=C/C=C/1C` [Zotarolimus (ABT-578)] was −1.34; that for `CC(C)CC(=O)Nc1n[nH]c2c1CN(C(=O)C1CCN(C)CC1)C2(C)C` [PHA-793887] was −0.1187.
In turn, `COc1cc(C(=O)NC2CCN(C)CC2)ccc1Nc1ncc2c(n1)N(C1CCCC1)CC(F)(F)C(=O)N2C` [Ro3280] gave a log2fc of 0.4269.
The value for `CCn1c(N)c(C(=O)NC)c(=O)c2ccc(C#C[C@@](C)(O)COC)nc21` [SAR131675] was 0.374; that for `[H]/N=C(/N)N/C(=N/[H])NCCc1ccccc1` [Phenformin HCl] was 0.5945; that for `CN(C)C/C=C/C(=O)Nc1cc2c(Nc3ccc(F)c(Cl)c3)ncnc2cc1O[C@H]1CCOC1` [Afatinib (BIBW2992), afatinib, reference compound] was 0.04313.
The value for `Cc1nc(NC(=O)N2CCC[C@H]2C(N)=O)sc1-c1ccnc(C(C)(C)C(F)(F)F)c1` [Alpelisib (BYL719)] was −0.1349; that for `O=c1ncn2nc(Sc3ccc(F)cc3F)ccc2c1-c1c(Cl)cccc1Cl` [VX-745] was −0.2953; that for `CCn1c2ccccc2c2cc(Nc3ccnc(NCCCN4CCOCC4)n3)ccc21` [EHop-016] was 0.1156.
With `COc1ncc(-c2ccc3nccc(-c4ccnnc4)c3c2)cc1NS(=O)(=O)c1ccc(F)cc1F` [Omipalisib (GSK2126458, GSK458)], the log2fc is 0.5342.
The value for `CN(C)Cc1cccc(N/C(=C2\C(=O)Nc3cc(C(N)=O)ccc32)c2ccccc2)c1` [BIX 02188] was 0.2216; that for `Cc1[nH]c(/C=C2\C(=O)Nc3ccccc32)c(C)c1CCC(=O)O` [Orantinib (TSU-68, SU6668)] was −0.2487.
